Source: patent US5217969A, “Benzoxazine derivatives as inhibitors of leukotrienes” (Imperial Chemical Industries PLC, priority 1990, dated 1993)

What was measured:
5-LO [1] = target: T1, 5-LO (Homo sapiens, UniProt P09917); assay: test b) heparinised human blood challenged with A23187, LTB4 radioimmunoassay; type: cell-based
T1 construct: heparinised human blood, prior to challenge with the calcium ionophore A23187; endogenous in cells; host or cells: heparinised human blood (endogenous enzyme of the blood cells)
T1 sequence (P09917 1-674): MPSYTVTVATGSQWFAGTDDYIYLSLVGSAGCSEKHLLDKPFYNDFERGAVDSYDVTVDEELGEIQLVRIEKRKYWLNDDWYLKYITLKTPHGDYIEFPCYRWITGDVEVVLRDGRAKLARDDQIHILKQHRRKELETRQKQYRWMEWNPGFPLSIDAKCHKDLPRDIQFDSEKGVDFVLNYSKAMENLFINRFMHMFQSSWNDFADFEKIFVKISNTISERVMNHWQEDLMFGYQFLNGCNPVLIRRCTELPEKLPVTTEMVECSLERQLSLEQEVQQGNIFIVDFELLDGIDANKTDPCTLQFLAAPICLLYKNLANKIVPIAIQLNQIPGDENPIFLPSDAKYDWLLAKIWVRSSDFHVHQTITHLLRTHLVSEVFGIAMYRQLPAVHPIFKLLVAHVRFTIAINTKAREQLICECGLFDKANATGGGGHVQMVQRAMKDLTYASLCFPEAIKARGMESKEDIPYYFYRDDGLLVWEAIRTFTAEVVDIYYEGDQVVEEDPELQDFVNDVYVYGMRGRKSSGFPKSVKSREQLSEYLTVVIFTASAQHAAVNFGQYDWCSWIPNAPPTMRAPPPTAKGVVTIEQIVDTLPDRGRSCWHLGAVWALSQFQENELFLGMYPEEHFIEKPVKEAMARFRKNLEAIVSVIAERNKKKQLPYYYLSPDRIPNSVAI
Description: b) An in vitro assay system involving incubating a test compound with heparinised human blood, prior to challenge with the calcium ionophore A23187 and then indirectly measuring the inhibitory effects on 5-LO by assaying the amount of LTB4 using the specific radioimmunoassays described by Carey and Forder (F. Carey and R. A. Forder, Prostaglandins, Leukotrienes Med., 1986, 22, 57; Prostaglandins, 1984, 28, 666; Brit. J. Pharmacol. 1985, 84, 34P) which involve the use of a protein-LTB4 conjugate produced using the procedure of Young et alia (Prostaglandins, 1983, 26(4), 605-613). The effects of a test compound on the enzyme cyclooxygenase (which is involved in the alternative metabolic pathway for arachidonic acid and gives rise to prostaglandins, thromboxanes and related metabolites) may be measured at the same time using the specific radioimmunoassay for thromboxane B2 (T×B2) described by Carey and Forder (see above). This test provides an indication of the effects of a test compound against 5-LO and also cyclooxygenase in the presence of blood cells and proteins. It permits the selectivity of the inhibitory effect on 5-LO or cyclooxygenase to be assessed.

5-LO [2] = target: T2, 5-LO (Rattus norvegicus, UniProt P12527); assay: test g) liberation of LTB4 induced by zymosan within an air pouch of male rats; type: in vivo; conditions: oral
T2 construct: liberation of LTB4 induced by zymosan within an air pouch generated within the subcutaneous tissue of the back of male rats; endogenous in cells; host or cells: living male rats; endogenous enzyme of cells in the zymosan-inflamed subcutaneous air pouch
T2 sequence (P12527 1-673): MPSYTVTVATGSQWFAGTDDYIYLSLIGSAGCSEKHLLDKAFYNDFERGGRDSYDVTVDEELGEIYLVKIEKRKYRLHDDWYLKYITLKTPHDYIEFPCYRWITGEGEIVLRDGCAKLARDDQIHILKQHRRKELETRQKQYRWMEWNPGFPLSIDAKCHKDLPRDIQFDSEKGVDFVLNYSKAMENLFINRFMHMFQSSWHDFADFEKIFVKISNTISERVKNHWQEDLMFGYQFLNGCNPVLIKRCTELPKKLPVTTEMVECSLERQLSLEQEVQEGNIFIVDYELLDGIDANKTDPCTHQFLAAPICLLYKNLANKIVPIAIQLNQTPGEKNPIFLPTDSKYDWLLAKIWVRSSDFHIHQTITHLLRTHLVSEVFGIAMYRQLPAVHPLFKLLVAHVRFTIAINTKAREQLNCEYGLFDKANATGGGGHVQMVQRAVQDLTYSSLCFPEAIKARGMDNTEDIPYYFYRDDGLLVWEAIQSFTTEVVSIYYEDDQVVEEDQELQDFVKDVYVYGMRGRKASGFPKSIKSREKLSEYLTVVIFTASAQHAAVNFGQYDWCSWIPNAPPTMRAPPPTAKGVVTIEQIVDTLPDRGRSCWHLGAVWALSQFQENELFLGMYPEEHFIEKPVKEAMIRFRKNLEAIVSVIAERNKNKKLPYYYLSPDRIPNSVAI
Description: g) An in vivo system involving measuring the effects of a test compound administered orally against the liberation of LTB4 induced by zymosan within an air pouch generated within the subcutaneous tissue of the back of male rats. The rats are anaesthetised and air pouches are formed by the injection of sterile air (20 ml). A further injection of air (10 ml) is similarly given after 3 days. At 6 days after the initial air injection the test compound is administered (usually orally as the suspension produced when a solution of the test compound in dimethylsulphoxide is added to hydroxypropylmethylcellulose), followed by the intrapouch injection of zymosan (1 ml of a 1% suspension in physiological saline). After 3 hours the rats are killed, the air pouches are lavaged with physiological saline, and the specific radioimmunoassay described above is used to assay LTB4 in the washings. This test provides an indication of inhibitory effects against 5-LO in an inflammatory milieu.

Compound `COC1(c2cc(F)cc(OCc3ccc4c(c3)OCC(=O)N4C)c2)CCOCC1` [Example 1, 4-[5-fluoro-3-(4-methyl-3-oxo-2,3-dihydro-4H-1,4-benzoxazin-7-ylmethoxy)phenyl]-4-methoxytetrahydropyran] has an IC50 (5-LO [1]) of 40 nM and an ED50 (5-LO [2]) of 0.4 mg/kg.
`COC1(c2cc(F)cc(OCc3ccc4c(c3)OC(C)(C)C(=O)N4C)c2)CCOCC1` [Example 2, 4-[5-fluoro-3-(2,2,4-trimethyl-3-oxo-2,3-dihydro-4H-1,4-benzoxazin-7-ylmethoxy)phenyl]-4-methoxytetrahydropyran] gave an IC50 (5-LO [1]) of 50 nM and an ED50 (5-LO [2]) of 1.5 mg/kg.
In the case of `COC1(c2cc(F)cc(Sc3ccc4c(c3)OCC(=O)N4C)c2)CCOCC1` [Example 5, 4-[5-fluoro-3-(4-methyl-3-oxo-2,3-dihydro-4H-1,4-benzoxazin-7-ylthio)phenyl]-4-methoxytetrahydropyran], the IC50 (5-LO [1]) is reported as 50 nM and the ED50 (5-LO [2]) is reported as 0.15 mg/kg.
Compound `COC1(c2cc(F)cc(Sc3ccc4c(c3)OCC(=S)N4C)c2)CCOCC1` [Example 7, 4-[5-fluoro-3-(4-methyl-3-thioxo-2,3-dihydro-4H-1,4-benzoxazin-7-ylthio)phenyl]-4-methoxytetrahydropyran] has an IC50 (5-LO [1]) of 300 nM and an ED50 (5-LO [2]) of 1.5 mg/kg.
